pIC50: −log10 of the molar value.
Target: T1, human PKCθ full length enzyme (Homo sapiens, UniProt Q04759)
T1 construct: human PKCθ full length enzyme (Panvera Catalog No. P2996); purchased Panvera P2996
Experiment: PKCθ IMAP Assay
Type: biochemical
Conditions: average value when one or more samples were tested; ATP 6 uM, PKCθ 1 nM
Summary of the method: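 Full-length human PKCθ (1 nM final) with 6 uM ATP and 100 nM 5FAM-labelled peptide, 5% DMSO, 3.0 mM DTT in reaction buffer. 25 min at room temperature; IMAP bead binding 20 min, fluorescence polarization read. Compounds 2:1 serially diluted; no-ATP and no-enzyme wells as controls.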

T1 sequence (Q04759 whole entry): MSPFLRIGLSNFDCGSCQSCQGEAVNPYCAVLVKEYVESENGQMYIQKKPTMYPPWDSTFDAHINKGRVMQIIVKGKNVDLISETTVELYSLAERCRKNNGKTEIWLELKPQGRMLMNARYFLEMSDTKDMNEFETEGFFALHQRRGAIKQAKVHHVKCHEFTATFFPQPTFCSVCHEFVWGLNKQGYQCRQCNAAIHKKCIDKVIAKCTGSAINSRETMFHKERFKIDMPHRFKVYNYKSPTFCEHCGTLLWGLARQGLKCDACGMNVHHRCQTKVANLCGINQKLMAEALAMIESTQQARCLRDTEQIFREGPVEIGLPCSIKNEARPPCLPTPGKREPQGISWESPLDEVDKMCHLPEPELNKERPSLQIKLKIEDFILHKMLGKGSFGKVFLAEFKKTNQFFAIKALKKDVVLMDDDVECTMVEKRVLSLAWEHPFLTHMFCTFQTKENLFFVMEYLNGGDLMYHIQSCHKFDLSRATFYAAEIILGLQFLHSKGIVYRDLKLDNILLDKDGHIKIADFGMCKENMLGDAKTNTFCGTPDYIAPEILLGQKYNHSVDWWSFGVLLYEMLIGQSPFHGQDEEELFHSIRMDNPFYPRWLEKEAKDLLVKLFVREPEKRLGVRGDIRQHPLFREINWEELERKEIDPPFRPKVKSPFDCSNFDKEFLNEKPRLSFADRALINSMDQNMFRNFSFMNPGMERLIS

Row | SMILES | pIC50
1 | N#Cc1cnc2sc(/C=C/c3ccc(C(F)(F)F)cc3)cc2c1Nc1ccc2[nH]ccc2c1 [Compound 408, 4-(1H-indol-5-ylamino)-2-{(E)-2-[4-(trifluoromethyl)phenyl]vinyl}thieno[2,3-b]pyridine-5-carbonitrile] | 4.63
2 | C=C(c1ccccc1)c1cc2c(Nc3ccc4[nH]ccc4c3)c(C#N)cnc2s1 [Compound 410, 4-(1H-indol-5-ylamino)-2-(1-phenylvinyl)thieno[2,3-b]pyridine-5-carbonitrile] | 5.98
3 | CCCC/C=C/c1cc2c(Nc3ccc4[nH]ccc4c3)c(C#N)cnc2s1 [Compound 411, 2-[(1E)-hex-1-en-1-yl]-4-(1H-indol-5-ylamino)thieno[2,3-b]pyridine-5-carbonitrile] | 5.59
4 | COC/C=C/c1cc2c(Nc3ccc4[nH]ccc4c3)c(C#N)cnc2s1 [Compound 412, 4-(1H-indol-5-ylamino)-2-[(1E)-3-methoxyprop-1-en-1-yl]thieno[2,3-b]pyridine-5-carbonitrile] | 6.38
5 | Cc1c(Nc2c(C#N)cnc3sc(-c4ccc(S(N)(=O)=O)cc4)c(C)c23)ccc2[nH]ccc12 [Compound 413, 4-{5-cyano-3-methyl-4-[(4-methyl-1H-indol-5-yl)amino]thieno[2,3-b]pyridin-2-yl}benzenesulfonamide] | 8.15
6 | CNS(=O)(=O)c1ccc(-c2sc3ncc(C#N)c(Nc4ccc5[nH]ccc5c4C)c3c2C)cc1 [Compound 414, 4-{5-cyano-3-methyl-4-[(4-methyl-1H-indol-5-yl)amino]thieno[2,3-b]pyridin-2-yl}-N-methylbenzenesulfonamide] | 7.54
7 | CNS(=O)(=O)c1ccc(-c2sc3ncc(C#N)c(Nc4ccc5[nH]ccc5c4)c3c2C)cc1 [Compound 415, 4-[5-cyano-4-(1H-indol-5-ylamino)-3-methylthieno[2,3-b]pyridin-2-yl]-N-methylbenzenesulfonamide] | 6.19
8 | Cc1c(Nc2c(C#N)cnc3sc(/C=C/c4ccccc4)cc23)ccc2[nH]ccc12 [Compound 416, 4-[(4-methyl-1H-indol-5-yl)amino]-2-[(E)-2-phenylvinyl]thieno[2,3-b]pyridine-5-carbonitrile] | 7.47
9 | CC(C)(C)OC(=O)N1CC=C(c2cc3c(Nc4ccc5[nH]ccc5c4)c(C#N)cnc3s2)CC1 [Compound 419, tert-butyl 4-[5-cyano-4-(1H-indol-5-ylamino)thieno[2,3-b]pyridin-2-yl]-3,6-dihydropyridine-1(2H)-carboxylate] | 6.02
10 | Cc1c(Nc2c(C#N)cnc3sc(/C=C/CCO)cc23)ccc2[nH]ccc12 [Compound 420, 2-[(1E)-4-hydroxybut-1-en-1-yl]-4-[(4-methyl-1H-indol-5-yl)amino]thieno[2,3-b]pyridine-5-carbonitrile] | 7.85
11 | Cc1c(Nc2c(C#N)cnc3sc(C4=CCCCC4)cc23)ccc2[nH]ccc12 [Compound 421, 2-cyclohex-1-en-1-yl-4-[(4-methyl-1H-indol-5-yl)amino]thieno[2,3-b]pyridine-5-carbonitrile] | 6.49
12 | COC/C=C/c1cc2c(Nc3ccc4[nH]ccc4c3C)c(C#N)cnc2s1 [Compound 422, 2-[(1E)-3-methoxyprop-1-en-1-yl]-4-[(4-methyl-1H-indol-5-yl)amino]thieno[2,3-b]pyridine-5-carbonitrile] | 7.16
13 | Cc1c(Nc2c(C#N)cnc3sc(-c4cccc(C(=O)N5CCCC5)c4)cc23)ccc2[nH]ccc12 [Compound 423, 4-[(4-methyl-1H-indol-5-yl)amino]-2-[3-(pyrrolidin-1-ylcarbonyl)phenyl]thieno[2,3-b]pyridine-5-carbonitrile] | 7.24
14 | Cc1c(Nc2c(C#N)cnc3sc(-c4ccccc4)c(C)c23)ccc2[nH]ccc12 [Compound 424, 3-methyl-4-[(4-methyl-1H-indol-5-yl)amino]-2-phenylthieno[2,3-b]pyridine-5-carbonitrile] | 6.71
15 | Cc1c(Nc2c(C#N)cnc3sc(/C=C/c4ccccc4)c(C)c23)ccc2[nH]ccc12 [Compound 425, 3-methyl-4-[(4-methyl-1H-indol-5-yl)amino]-2-[(E)-2-phenylvinyl]thieno[2,3-b]pyridine-5-carbonitrile] | 7.02
16 | Cc1c(Nc2c(C#N)cnc3sc(-c4cccc(S(N)(=O)=O)c4)c(C)c23)ccc2[nH]ccc12 [Compound 427, 3-{5-cyano-3-methyl-4-[(4-methyl-1H-indol-5-yl)amino]thieno[2,3-b]pyridin-2-yl}benzenesulfonamide] | 7.47
17 | CNS(=O)(=O)c1cccc(-c2sc3ncc(C#N)c(Nc4ccc5[nH]ccc5c4C)c3c2C)c1 [Compound 428, 3-{5-cyano-3-methyl-4-[(4-methyl-1H-indol-5-yl)amino]thieno[2,3-b]pyridin-2-yl}-N-methylbenzenesulfonamide] | 7.22
18 | Cc1c(Nc2c(C#N)cnc3sc(-c4cccc(C(=O)NCCN(C)C)c4)c(C)c23)ccc2[nH]ccc12 [Compound 429, 3-{5-cyano-3-methyl-4-[(4-methyl-1H-indol-5-yl)amino]thieno[2,3-b]pyridin-2-yl}-N-[2-(dimethylamino)ethyl]benzamide] | 7.22
19 | Cc1c(Nc2c(C#N)cnc3sc(-c4ccc(C(=O)NCCN(C)C)cc4)c(C)c23)ccc2[nH]ccc12 [Compound 430, 4-{5-cyano-3-methyl-4-[(4-methyl-1H-indol-5-yl)amino]thieno[2,3-b]pyridin-2-yl}-N-[2-(dimethylamino)ethyl]benzamide] | 6.94
20 | Cc1c(Nc2c(C#N)cnc3sc(-c4ccc(S(=O)(=O)NCCO)cc4)c(C)c23)ccc2[nH]ccc12 [Compound 431, 4-{5-cyano-3-methyl-4-[(4-methyl-1H-indol-5-yl)amino]thieno[2,3-b]pyridin-2-yl}-N-(2-hydroxyethyl)benzenesulfonamide] | 6.96
21 | Cn1ccnc1-c1cc2c(Nc3ccc4[nH]ccc4c3)c(C#N)cnc2s1 [Compound 433, 4-(1H-indol-5-ylamino)-2-(1-methyl-1H-imidazol-2-yl)thieno[2,3-b]pyridine-5-carbonitrile] | 6.28
22 | Cc1c(Nc2c(C#N)cnc3sc(-c4cc5ccccc5[nH]4)cc23)ccc2[nH]ccc12 [Compound 434, 2-(1H-indol-2-yl)-4-[(4-methyl-1H-indol-5-yl)amino]thieno[2,3-b]pyridine-5-carbonitrile] | 7.15
23 | Cc1c(Nc2c(C#N)cnc3sc(-c4cccnc4)cc23)ccc2[nH]ccc12 [Compound 438, 4-[(4-methyl-1H-indol-5-yl)amino]-2-pyridin-3-ylthieno[2,3-b]pyridine-5-carbonitrile] | 7.85
24 | Cc1c(Nc2c(C#N)cnc3sc(-c4ccccn4)cc23)ccc2[nH]ccc12 [Compound 440, 4-[(4-methyl-1H-indol-5-yl)amino]-2-pyridin-2-ylthieno[2,3-b]pyridine-5-carbonitrile] | 7.80
25 | Cc1c(Nc2c(C#N)cnc3sc(-c4ccccc4O)cc23)ccc2[nH]ccc12 [Compound 442, 2-(2-hydroxyphenyl)-4-[(4-methyl-1H-indol-5-yl)amino]thieno[2,3-b]pyridine-5-carbonitrile] | 6.56

More lines, in order of rising pIC50, values ahead:

Row | pIC50 | SMILES
26 | 5.43 | N#Cc1cnc2sc(/C=C/Cc3ccccc3)cc2c1Nc1ccc2[nH]ccc2c1 [Compound 409, 4-(1H-indol-5-ylamino)-2-[(1E)-3-phenylprop-1-en-1-yl]thieno[2,3-b]pyridine-5-carbonitrile]
27 | 6.55 | CC(=O)Nc1ccccc1-c1cc2c(Nc3ccc4[nH]ccc4c3C)c(C#N)cnc2s1 [Compound 435, N-(2-{5-cyano-4-[(4-methyl-1H-indol-5-yl)amino]thieno[2,3-b]pyridin-2-yl}phenyl)acetamide]
28 | 6.67 | Cc1c(Nc2c(C#N)cnc3sc(-c4ccccc4N)cc23)ccc2[nH]ccc12 [Compound 436, 2-(2-aminophenyl)-4-[(4-methyl-1H-indol-5-yl)amino]thieno[2,3-b]pyridine-5-carbonitrile]
29 | 6.90 | Cc1c(Nc2c(C#N)cnc3sc(C#CCCN4CCN(C)CC4)cc23)ccc2[nH]ccc12 [Compound 450, 4-[(4-methyl-1H-indol-5-yl)amino]-2-[4-(4-methylpiperazin-1-yl)but-1-yn-1-yl]thieno[2,3-b]pyridine-5-carbonitrile]
30 | 6.92 | Cc1c(Nc2c(C#N)cnc3sc(-c4cccc(NS(C)(=O)=O)c4)c(C)c23)ccc2[nH]ccc12 [Compound 426, N-(3-{5-cyano-3-methyl-4-[(4-methyl-1H-indol-5-yl)amino]thieno[2,3-b]pyridin-2-yl}phenyl)methanesulfonamide]
31 | 7.00 | Cc1c(Nc2c(C#N)cnc3sc(C4=CCN(C(=O)OC(C)(C)C)CC4)cc23)ccc2[nH]ccc12 [Compound 418, tert-butyl 4-{5-cyano-4-[(4-methyl-1H-indol-5-yl)amino]thieno[2,3-b]pyridin-2-yl}-5,6-dihydropyridine-1(2H)-carboxylate]
32 | 7.31 | Cc1c(Nc2c(C#N)cnc3sc(-c4nccn4C)cc23)ccc2[nH]ccc12 [Compound 432, 2-(1-methyl-1H-imidazol-2-yl)-4-[(4-methyl-1H-indol-5-yl)amino]thieno[2,3-b]pyridine-5-carbonitrile]
33 | 7.48 | C=Cc1cc2c(Nc3ccc4[nH]ccc4c3C)c(C#N)cnc2s1 [Compound 417, 4-[(4-methyl-1H-indol-5-yl)amino]-2-vinylthieno[2,3-b]pyridine-5-carbonitrile]
34 | 7.54 | Cc1c(Nc2c(C#N)cnc3sc(-c4ccc(O)cc4)cc23)ccc2[nH]ccc12 [Compound 441, 2-(4-hydroxyphenyl)-4-[(4-methyl-1H-indol-5-yl)amino]thieno[2,3-b]pyridine-5-carbonitrile]
35 | 7.89 | Cc1c(Nc2c(C#N)cnc3sc(-c4ccncc4)cc23)ccc2[nH]ccc12 [Compound 439, 4-[(4-methyl-1H-indol-5-yl)amino]-2-pyridin-4-ylthieno[2,3-b]pyridine-5-carbonitrile]
36 | 7.96 | Cc1c(Nc2c(C#N)cnc3sc(-c4cccc(O)c4)cc23)ccc2[nH]ccc12 [Compound 437, 2-(3-hydroxyphenyl)-4-[(4-methyl-1H-indol-5-yl)amino]thieno[2,3-b]pyridine-5-carbonitrile]

— patent US20070082880A1 (priority 2005, published 2007)
